Test results as given in patent US20230117757A1, “COENZYME Q PRODUCTION ACCELERATOR AND METHOD FOR ACCELERATING COENZYME Q PRODUCTION” (priority 2020, published 2023).

Test system: HEK293 cells (human embryonic kidney cells)
Test: coenzyme Q10 production in mitochondria of HEK293 cells cultured with nicotinamide mononucleotide, quantified by LC-MS
Assay type: cell-based
Details: HEK293 cells cultured three days in DMEM medium with 1 mM or 2.5 mM β-nicotinamide mononucleotide daily added; control 0 mM
Description: To examine a production promoting effect of coenzyme Q10 caused by nicotinamide mononucleotide, HEK293 cells (human embryonic kidney cells) were cultured for three days (37° C., 5% CO2) in DMEM medium containing β-nicotinamide mononucleotide with a predetermined concentration (0 mM (control), 1 mM, and 2.5 mM daily added). Three days after the first day of culture, mitochondria were isolated from the HEK293 cells, and contained amounts of each of the reduced form (ubiquinol) and the oxidized form (ubiquinone) of coenzyme Q10 in the mitochondria were quantified by LC-MS method (LC column: KINETEX C18 column (Phenomenex), MS: Shimadzu LCMS-8060 (Shimadzu Corporation), eluent: 10 mM ammonium formate in Methanol, flow rate: 0.5 mL/minute, detection: MS/MS analysis by multiple reaction monitoring (MRM) method; Q10H2 883.6→197.15 m/z, Q10 881.4→197.15 m/z, Q9H2 815.6→197.15 m/z, Q9 813.6→197.15 m/z, Q8H2 747.6→197.15 m/z, Q8 745.6→197.15 m/z) (column: ODS, column temperature: 40° C., eluent: 70% acetonitrile/methanol (1:1) and 30% 0.05 M ammonium formate (prepared to be pH 7.2 with 10% ammonia water), flow rate: 1.0 mL/minute, detection: UV276 nm). […]

NC(=O)c1ccc[n+]([C@@H]2O[C@H](COP(=O)(O)O)[C@@H](O)[C@H]2O)c1 [nicotinamide mononucleotide]
sum amount of the reduced form and the oxidized form of coenzyme Q10 in the mitochondria, change vs control: approximately doubled
